We go through ten molecules from patent US20250017856A1, “CO-FORMULATION AND CO-DELIVERY OF IONIZABLE COLLOID FORMING DRUGS WITH NUCLEIC ACIDS” (THE GOVERNING COUNCIL OF THE UNIVERSITY OF TORONTO, priority 2023, published 2025).

For series [1] the following is noted: ionizable compound (fulvestrant analog); cited from earlier work.
The nature of series [2]: RNA encapsulation efficiency (modified Quant-iT RiboGreen assay) and loading. It is filed as physicochemical. The conditions noted are these: for Encapsulation efficiency (%) / Small molecule drug mass % / siRNA mass %: FxNP. The source says: (§1) [NT] antisense (SEQ ID NO: 2): [NT] where “d” denotes a DNA base), siFLuc-2 (sense (SEQ ID NO: 3): [NT] antisense (SEQ ID NO: 4): [NT] where “d” denotes a DNA base and “m” indicates a 2'-O-methyl RNA base), sinLuc (sense (SEQ ID NO: 5): [NT] antisense SEQ ID NO: 6): [NT] where “d” denotes a DNA base), […]1 (sense (SEQ ID NO: 7): [NT] antisense (SEQ ID NO: 8): [NT] where “d” denotes a DNA base and “m” indicates a 2'-O-methyl RNA base), siNT (sense (SEQ ID NO: 9): [NT] antisense (SEQ ID NO: 10): [NT] where “d” denotes a DNA base and “m” indicates a 2'-O-methyl RNA base), mFLuc (EZ Cap Firefly Luciferase mRNA (5-moUTP), ApexBio), rRNA or RNA from Torula utilis yeast (T.U. RNA) was diluted in citrate buffer (50 or 25 mM, pH 4), malate buffer (25 mM, pH 4.0) or acetate buffer (25 mM, pH 4.0). A lipid/drug mix concentration of 5.5 mM was used with a total flow rate of 9 mL/min at a 3:1 ratio of aqueous to organic phase. […] After formulation, buffer exchange into PBS or Tris-buffered saline (TBS; pH 8.5) was performed using Amicon Ultra-4 centrifugal filters (molecular weight cut-off 10 kDa). Hydrodynamic diameter, polydispersity index (PDI), and scattering intensity were measured by dynamic light scattering (DLS) using a DynaPro Plate Reader II (Wyatt Technologies). The instrument was configured with a 60 mW 830 nm laser and a detector angle of 158°. A 25 μL sample of each formulation was pipetted into each well of a 384-well plate and measured with 20 acquisitions per sample at 25° C. […] Quant-iT RiboGreen reagent was added, and fluorescence intensity was quantified using a Tecan Infinite […] plate reader.

Series [3] is described as follows: Zeta potential (Malvern Zetasizer). It counts as physicochemical. The note with it: FxNP. The method, then: Zeta potential was measured by diluting FXNPs in phosphate to an ion concentration of 1 mM and using a Malvern Zetasizer Nano ZS instrument.
Series [4] in a line: Hydrodynamic diameter and polydispersity index by dynamic light scattering. The note with it: FxNP. It is filed as physicochemical.
Text: as §1

Series [5] relates to firefly luciferase expression in mouse liver. The series can be described thus: In vivo liver bioluminescence after i.v. injection of mFLuc nanoparticles. Also on record: species or system BALB/c mice. The conditions noted are these: tail vein, 1 mg/kg mRNA, 4 and 24 h. The method, then:
Animal study protocols were approved by the Animal Care Committee at the University of Toronto and experiments were performed in accordance with the Guide to Care and Use of Experimental Animals (Canadian Council on Animal Care). FXNPs with encapsulated mFLuc and DIR (0.5 mol %) were administered (1 mg/kg in terms of mRNA) via tail vein injection to BALB/c mice. After 4 h and 24 h, mice were anesthetized using isoflurane and injected intraperitoneally with 150 mg/kg VivoGlo™ luciferin (Promega, Madison, WI). Whole-body luminescence was acquired by a PerkinElmer In-Vivo Imaging System Spectrum instrument after 10-20 minutes.

The subject of another series is FLuc in SKOV3-FLuc cells. The series can be described thus: Model gene knockdown, firefly luciferase. It counts as cell-based. The procedure:
For single-dose studies, 5×10^3 SKOV3-FLuc or 2×10^3 Vero-nLucP cells in 100 μL were plated in each well of a white-wall 96-well plate (Costar 3610) and allowed to adhere overnight. FXNP suspensions were diluted in PBS and 10 μL of each tested formulation was dosed in triplicate, followed by 100 μL of complete cell growth media to promote mixing. The final encapsulated siRNA concentration in each well was 50.0 nM. For dose-response studies, 1.25×10^3 SKOV3-FLuc cells in 25 μL were plated in each well of a white-wall 384-well plate (Greiner Bio-one 781073) and allowed to adhere overnight. Nanoparticle suspensions were diluted in PBS and 5 μL of each tested formulation was dosed in triplicate, followed by 20 μL of complete cell growth media to promote mixing. The final encapsulated siRNA concentration in each well is specified in each figure. For all studies, the plate was incubated for 24 h followed by removal of the media. For SKOV3-FLuc cells, fresh media was added, and the plate was incubated for an additional 24 h before removal of the media. Total cellular metabolic activity was quantified by addition of PrestoBlue™ according to the manufacturer's instructions, after which the reagent was subsequently removed, and expression of either firefly luciferase (SKOV3-FLuc) or nano luciferase (Vero-nLucP) was determined by Steady-Glo® Luciferase Assay System or Nano-Glo® Luciferase Assay System, respectively. Luminescence was measured using a Tecan Infinite Pro 200 plate reader. Cell metabolic activity and reporter gene expression are represented relative to cells treated with an equivalent volume of PBS. Reporter gene expression is normalized to cell metabolic activity. For dose-response studies, IC50 values were determined by non-linear regression analysis using eq. 3

Another series relates to T47D-R cells. The series can be described thus: Confirmation of palbociclib resistance. It is filed as cell-based. The note with it: Homo sapiens; palbociclib-resistant T47D cells (T47D-R). The procedure:
SKOV3 cells were obtained from ATCC. SKOV3-luc cells were obtained from Cell Biolabs. Vero-E6-nLucP cells were a generous gift from Roman Melnyk. T47D cells were a gift from B. Neel (University Health Network). Palbociclib-resistant T47D cells (T47D-R) were developed by dose escalation of palbociclib up to 500-1000 nM over 6-12 months and was confirmed by a palbociclib IC50 greater than […]. Parental T47D cells (T47D-P) were cultured over the same time frame without palbociclib treatment. Cells were maintained in a humified incubator at 37° C. with 5% atmospheric CO2. RPMI 1640 (SKOV3, T47D) or EMEM (Vero-E6) were used as a base media. Cells were grown in 75 cm^2 tissue culture flasks with 10 mL of media supplemented with 10% FBS, 10 UI/mL penicillin and 10 μg/mL streptomycin. The cells were passaged once per week following detachment with trypsin-EDTA, replacement of the supernatant with fresh media, and subculture into a new flask with fresh media. Subculture ratios between 1:4 and 1:50 were used.

Some results are limits rather than exact numbers.

Usually pKa stands for the negative logarithm of the acid dissociation constant. As to `CC12CCC3c4ccc(O)cc4CC(CCCCCCCCCS(=O)(CCCC(F)(F)C(F)(F)F)=NC(=O)CCN4CCCCC4)C3C1CCC2O` (stereo not shown) [7g], in series [1], the pKa is 7.3. For the same molecule, the “Encapsulation efficiency (%)” value is 96.6% in series [2] (siFLuc, DOPC); 94.7% in series [2] (siFLuc, DSPC); 94.9% in series [2] (sinLuc, DOPC). The “Small molecule drug mass %” value in series [2] (siFLuc, DOPC) stood at 56.0%; in series [2] (siFLuc, DSPC) it was 56.0%; in series [2] (sinLuc, DOPC), 56.0%. Besides, the siRNA mass % in series [2] (siFLuc, DOPC) is on record as 4.8%; in series [2] (siFLuc, DSPC) it was 4.7%; in series [2] (sinLuc, DOPC), 4.7%. For the same molecule, the “Zeta potential (mV)” value is 3.39 mV in series [3] (siFLuc, DOPC); −4.92 mV in series [3] (siFLuc, DSPC); 0.01 mV in series [3] (sinLuc, DOPC). The “Hydrodynamic diameter (nm)” value in series [4] (siFLuc, DOPC) was found to be 186.2 nm; in series [4] (siFLuc, DSPC), 170.8 nm; in series [4] (sinLuc, DOPC) it was 181.8 nm. Besides, the PDI in series [4] (siFLuc, DOPC) is 0.022; in series [4] (siFLuc, DSPC), 0.076; in series [4] (sinLuc, DOPC), 0.042.
Turning to `CC12CCC3c4ccc(O)cc4CC(CCCCCCCCCS(=O)(CCCC(F)(F)C(F)(F)F)=NC(=O)CN4CCCC4)C3C1CCC2O` (stereo not shown) [7h], the pKa in series [1] is recorded as 7.3. Also, in series [2] (siFLuc, DSPC), the “Encapsulation efficiency (%)” value is 86.4%, the “Small molecule drug mass %” value was determined as 55.3% and the siRNA mass % is given as 4.4%. Moreover, the “Zeta potential (mV)” value in series [3] (siFLuc, DSPC) was −7.54 mV. Further, in series [4] (siFLuc, DSPC), the “Hydrodynamic diameter (nm)” value was found to be 160.5 nm and the PDI amounted to 0.183.
Regarding `CN1CCN(CC(=O)N=S(=O)(CCCCCCCCCC2Cc3cc(O)ccc3C3CCC4(C)C(O)CCC4C23)CCCC(F)(F)C(F)(F)F)CC1` (stereo not shown) [7i], the pKa in series [1] is 7.4. In addition, in series [2] (siFLuc, DSPC), the “Encapsulation efficiency (%)” value stood at 52.8%, the “Small molecule drug mass %” value is reported as 57.2% and the siRNA mass % came out at 2.7%. Besides, the “Zeta potential (mV)” value in series [3] (siFLuc, DSPC) is −3.98 mV. Also, in series [4] (siFLuc, DSPC), the “Hydrodynamic diameter (nm)” value is 338.6 nm and the PDI was found to be 0.218.
Turning to `CC12CCC3c4ccc(O)cc4CC(CCCCCCCCCS(=O)(CCCC(F)(F)C(F)(F)F)=NC(=O)CCN4CCCC4)C3C1CCC2O` (stereo not shown) [7j], the pKa in series [1] is reported as 7.6. In addition, in series [2] (siFLuc, DSPC), the “Encapsulation efficiency (%)” value came to 72.0%, the “Small molecule drug mass %” value is reported as 56.2% and the siRNA mass % came to 3.7%. In addition, in series [3] (siFLuc, DSPC), the “Zeta potential (mV)” value is recorded as −3.56 mV. Further, in series [4] (siFLuc, DSPC), the “Hydrodynamic diameter (nm)” value was 337.1 nm and the PDI is on record as 0.225.
With `CN(C)CCC(=O)N=S(=O)(CCCCCCCCCC1Cc2cc(O)ccc2C2CCC3(C)C(O)CCC3C12)CCCC(F)(F)C(F)(F)F` (stereo not shown) [7k], the pKa in series [1] is 7.8. Also, in series [2] (siFLuc, DSPC), the “Encapsulation efficiency (%)” value is listed as 80.2%, the “Small molecule drug mass %” value stood at 55.1% and the siRNA mass % was 4.2%. Besides, the “Zeta potential (mV)” value in series [3] (siFLuc, DSPC) is −8.53 mV. Further, in series [4] (siFLuc, DSPC), the “Hydrodynamic diameter (nm)” value turned out to be 426.9 nm and the PDI stood at 0.060.
With `CC12CCC3c4ccc(O)cc4CC(CCCCCCCCCS(=O)(CCCC(F)(F)C(F)(F)F)=NC(=O)CN)C3C1CCC2O` (stereo not shown) [7m], the pKa in series [1] is 8.1. In series [2] (siFLuc, DSPC), the “Encapsulation efficiency (%)” value was determined as 88.1%, the “Small molecule drug mass %” value stood at 53.4% and the siRNA mass % is 4.7%. Besides, in series [3] (siFLuc, DSPC), the “Zeta potential (mV)” value is −6.62 mV. In series [4] (siFLuc, DSPC), the “Hydrodynamic diameter (nm)” value stood at 447.8 nm and the PDI result is “Multimodal”.
Regarding `C[C@]12CC[C@@H]3c4ccc(O)cc4C[C@@H](CCCCCCCCC[S+]([O-])CCCC(F)(F)C(F)(F)F)[C@H]3[C@@H]1CC[C@@H]2O` (stereo partly shown) [FV, fulvestrant, reference compound], the liver bioluminescence entry in series [5] was “did not show bioluminescence above the baseline”. Moreover, the “encapsulation and loading efficiencies of siRNA (in words)” value in series [2] (DSPC formulations) is “low”. Besides, in series [2] (siFLuc, DSPC), the “Encapsulation efficiency (%)” value is 14.5%, the “Small molecule drug mass %” value came out at 52.8% and the siRNA mass % is on record as 0.9%. Also, the “Zeta potential (mV)” value in series [3] (siFLuc, DSPC) is recorded as −19.23 mV. Further, in series [4] (siFLuc, DSPC), the “Hydrodynamic diameter (nm)” value was found to be 204.7 nm and the PDI was found to be 0.102.
Turning to `CCCCCCCCCCCOC(=O)CCCCCN(CCO)CCCCCCCC(=O)OC(CCCCCCCC)CCCCCCCC` [SM-102], the “effect of removing netarsudil without replacement” value in the series with FLuc in SKOV3-FLuc cells (netarsudil:SM-102 0:10) is “decrease in potency and loss of encapsulated siRNA”. For the same molecule, the “change of IC50 on replacing all of the netarsudil with SM-102” value in the series on FLuc in SKOV3-FLuc cells (netarsudil:SM-102 0:50) is on record as “non-significant decrease in IC50”.
What is called IC50 is the midpoint of a concentration-inhibition curve. As to `Cc1ccc(C(=O)OCc2ccc([C@@H](CN)C(=O)Nc3ccc4cnccc4c3)cc2)c(C)c1` [netarsudil], the IC50 in the series on FLuc in SKOV3-FLuc cells (50:0 netarsudil:SM-102, narrowed concentration range (<2 nM)) was more than 2 nM; with FLuc in SKOV3-FLuc cells (TBS, 40 mol % netarsudil with 10 mol % ALC-0315), 0.32 nM; in the series on FLuc in SKOV3-FLuc cells (TBS, 40 mol % netarsudil with 10 mol % MC3) it was 0.77 nM; in the series on FLuc in SKOV3-FLuc cells (TBS, 40 mol % netarsudil with 10 mol % SM-102), 0.16 nM; with FLuc in SKOV3-FLuc cells (neutralized in TBS, 50 mol % netarsudil, no ionizable lipid), 3.8 nM.
`CC(=O)c1c(C)c2cnc(Nc3ccc(N4CCNCC4)cn3)nc2n(C2CCCC2)c1=O` [palbociclib] registered an IC50 in the series with T47D-R cells of more than 1000 nM.
